Experimental data reported in patent US9474814B2, “Differential evaporation potentiated disinfectant system” (XY, LLC, priority 2007, dated 2016).
Where two headings read alike, the source gives them in different places.

What was measured:
[1] = neat substance; BuAc (reference) = 1.00; cited from earlier work
[2] = flash point; cited from earlier work
[3] = n-octanol/water; cited from earlier work
[4] = Evaporation of fluid volume over time (FIG. 2); type: physicochemical
Excerpt: (§1) Line C represents the change in fluid volume of a 20% (v/v) solution of diacetone alcohol in water caused by evaporation (a particular embodiment of the inventive differential evaporation antimicrobial composition), while line D represents the change in fluid phase concentration of the same 20% (v/v) diacetone alcohol in water occurring during the same fluid volume change. In this case, complete evaporation can occur in approximately 75 time units. Comparatively, the 20% (v/v) diacetone alcohol in water can be engaged with a population of microorganisms for a greater duration of time than the conventional antimicrobial composition without reapplication of an additional amount because evaporation occurs at a slower rate as shown by Table 3.
By comparison, Line C represents the change in fluid volume of a 20% (v/v) solution of diacetone alcohol in water, while line D represents the change in concentration of diacetone alcohol in water. As to this non-limiting example, if 10% diacetone alcohol (v/v) is the minimum concentration to provide an antimicrobial composition, then the entire 75 time units provide an antimicrobial composition because the concentration of diacetone alcohol increases over the 75 time units in accordance with embodiments of differential evaporation potentiated antimicrobial compositions.

[5] = Relative evaporation rates; type: physicochemical; settings: BuAc (reference) = 1.00
Excerpt: as §1

[6] = test system: Staphylococcus aureus (ATCC 6538); experiment: Potentiation Assay (non-evaporative vs evaporative procedure); type: cell-based; settings: for Evaporated Log 10 Reduction: evaporated in centrifuge 60 minutes; for Non-evaporated Log 10 Reduction: set 60 minutes; for evaporative potentiation of antimicrobial efficacy: evaporative vs non-evaporative procedure, concentrations tested in water
Experimental: Now referring primarily to Table 5 and FIG. […] The non-evaporative and evaporative procedures included 50 μL of an overnight Staphylococcus aureus (ATCC 6538, ˜10^9 CFU/mL) culture added to each 2 mL sterile plastic vial with a conical bottom and dried without capping in a centrifuge for 30 minutes. One hundred microliters of the solution being tested was added to each vial (as triplicate vials) either let set for 60 minutes (non-evaporative) or evaporated in a centrifuge for 60 minutes (evaporative), with time to evaporate being determined by each DAA mixtures own evaporative characteristic. To the non-evaporated vials, 400 μL Mueller Hinton Broth (MHB) was added to the vial and 100 μL was plated onto Nutrient agar (NA). To the evaporated vials, 500 μL of MHB was added and 100 μL was plated onto NA. Plates were incubated overnight at ˜37° C. and counted (the “Potentiation Assay”).

[7] = test system: Staphylococcus aureus (ATCC 6538), Pseudomonas aeruginosa (ATCC 9027), Salmonella Choleraesuis (ATCC 13312); experiment: Coverslip assay: composition applied to dried bacteria on glass coverslips, evaporated to dryness, nutrient agar contact; type: cell-based
Experimental: These bacteria cultures can be diluted to obtain concentrations of about 10^7 through about 10^3 CFU/ml and 10 μl of each dilution can be spread onto a glass coverslip with a sterile loop and allowed to dry. Afterwards, the coverslips containing 10^5 to 10^2 CFU can be placed inside of petri dish. Different concentrations of the amount of substance can be applied to the cover slips with a nebulizer as described by Germicidal Spray Products as Disinfectants, Method 961.02, AOAC International (2004). As a non-limiting example, isopropyl alcohol (IPA) and diacetone alcohol (DAA) can be assessed as above described by obtaining aqueous mixtures of IPA at concentrations of 55% w/w, 20% w/w, and 5% w/w. […] A nutrient agar lightly pressed against the coverslips allows contact of microorganisms on the coverslips with the nutrient agar. The nutrient agar can be incubated for 48 hours at 37° C. in contact with the coverslips and then observed for microbial reproduction in the region where the coverslips contact the nutrient agar. Untreated coverslips can be used as a positive control. Particular examples of utilizing the method are set forth below.

[8] = cited from earlier work
[9] = 3% v/v active component, 97% water
[10] = 6% v/v active component, 94% water
[11] = 10% v/v active component, 90% water
[12] = 15% v/v active component, 85% water
[13] = azeotrope in water, Table 2, listed as Diacetone Alcohol
[14] = 20% v/v active component, 80% water
[15] = 70% v/v active component, 30% water

In the case of `CC(C)=O` [Acetone, reference compound], the “Relative Evaporation Rates” value [1] is listed as 11.60, the FP [2] is listed as −18 °C and the “Log P” value [3] is listed as −0.23.

In the case of `CC(=O)CC(C)(C)O` [DAA, 4-hydroxy-4-methyl-2-pentanone], the complete evaporation ([4]; 20% (v/v) in water) is reported as “approximately 75 time units”, the “Relative Evaporation Rates (estimated)” value ([5]; 20% (v/v)) is reported as 0.31 and the “Relative Evaporation Rates (estimated)” value ([5]; 40% (v/v)) is reported as 0.27. For the same compound, the “Relative Evaporation Rates” value [1] was 0.14, the “Evaporated Log 10 Reduction” value [6, 9] was “X (denotes a plate where the number of colonies represented less than 50% of the number of colonies counted in the corresponding positive control plate, representing reduction of the number of microorganisms (<2 Log10 reduction).)” and the “Non-evaporated Log 10 Reduction” value [6, 9] was “---0--- (denotes a plate where the numbers of colonies represented more than 50% of the number of colonies counted in the corresponding positive control plate, representing no significant reduction in the population of viable microorganisms (0 to 1 Log10 reduction).)”. For the same compound, the “Evaporated Log 10 Reduction” value [6, 10] was “X (denotes a plate where the number of colonies represented less than 50% of the number of colonies counted in the corresponding positive control plate, representing reduction of the number of microorganisms (<2 Log10 reduction).)”, the “Non-evaporated Log 10 Reduction” value [6, 10] was “---0--- (denotes a plate where the numbers of colonies represented more than 50% of the number of colonies counted in the corresponding positive control plate, representing no significant reduction in the population of viable microorganisms (0 to 1 Log10 reduction).)” and the “Evaporated Log 10 Reduction” value [6, 11] was “XX (denotes a plate where the number of colonies represented less than 10% of the number of colonies counted in the corresponding positive control plate, representing a significant reduction of the number of microorganisms (>3 Log10 reduction).)”. The “Non-evaporated Log 10 Reduction” value [6, 11] was “---0--- (denotes a plate where the numbers of colonies represented more than 50% of the number of colonies counted in the corresponding positive control plate, representing no significant reduction in the population of viable microorganisms (0 to 1 Log10 reduction).)”, the “Evaporated Log 10 Reduction” value [6, 12] was “XXX (denotes a plate in which zero colonies were present, representing complete reduction of the number of microorganisms (>5 Log10 reduction).)” and the “Non-evaporated Log 10 Reduction” value [6, 12] was “XXx (denotes a plate where the number of colonies represented less than 1% of the number of colonies counted in the corresponding positive control plate, representing nearly complete reduction of the number of microorganisms (>4 Log10 reduction).)”. The “evaporative potentiation of antimicrobial efficacy” value [6] was “can be potentiated by evaporation”, the “Log P” value [3] was “about −0.14” and the Evaporated from coverslip [7, 10] was “X (denotes a plate where the number of colonies represented less than 50% of the number of colonies counted in the corresponding positive control plate, representing reduction of the number of microorganisms (<2 Log10 reduction).)”. For the same compound, the Evaporated from coverslip [7, 11] was “XX (denotes a plate where the number of colonies represented less than 10% of the number of colonies counted in the corresponding positive control plate, representing a significant reduction of the number of microorganisms (>3 Log10 reduction).)”, the Evaporated from coverslip ([7]; 60% v/v active component, 40% water) was “XXX (denotes a plate in which zero colonies were present, representing complete reduction of the number of microorganisms (>5 Log10 reduction).)” and the “reduction of populations of microorganisms, comparison” value ([7]; concentrations at which water evaporated at a greater rate than DAA from the mixture) was “greater reduction of populations of microorganisms than 70% IPA (v/v)”. The azeotrope % mol/mol ([8]; azeotrope in water, Table 2) was 2.2% mol/mol, the azeotrope % vol/vol [8, 13] was 13.43% vol/vol and the azeotrope % w/w [8, 13] was 12.70% w/w. For the same compound, the azeotrope % w/w ([8]; azeotrope in water, Table 2, listed as diacetone alcohol) was “about 12.70 % w/w” and the azeotrope point ([8]; diacetone alcohol and water) was “about 12.7 grams per 100 grams of the com”.

For `CC(C)O` [Isopropanol, 2-propanol, reference compound], the complete evaporation ([4]; 70% (v/v) in water) is given as “about 15 time units”, the FP [2] is given as 21 °C and the “Evaporated Log 10 Reduction” value [6, 11] is given as “---0--- (denotes a plate where the numbers of colonies represented more than 50% of the number of colonies counted in the corresponding positive control plate, representing no significant reduction in the population of viable microorganisms (0 to 1 Log10 reduction).)”. For the same compound, the “Non-evaporated Log 10 Reduction” value [6, 11] was “---0--- (denotes a plate where the numbers of colonies represented more than 50% of the number of colonies counted in the corresponding positive control plate, representing no significant reduction in the population of viable microorganisms (0 to 1 Log10 reduction).)”, the “Evaporated Log 10 Reduction” value [6, 14] was “---0--- (denotes a plate where the numbers of colonies represented more than 50% of the number of colonies counted in the corresponding positive control plate, representing no significant reduction in the population of viable microorganisms (0 to 1 Log10 reduction).)” and the “Non-evaporated Log 10 Reduction” value [6, 14] was “XXX (denotes a plate in which zero colonies were present, representing complete reduction of the number of microorganisms (>5 Log10 reduction).)”. For the same compound, the “Evaporated Log 10 Reduction” value [6, 15] was “XXX (denotes a plate in which zero colonies were present, representing complete reduction of the number of microorganisms (>5 Log10 reduction).)”, the “Non-evaporated Log 10 Reduction” value [6, 15] was “XXX (denotes a plate in which zero colonies were present, representing complete reduction of the number of microorganisms (>5 Log10 reduction).)” and the “evaporative potentiation of antimicrobial efficacy” value [6] was “cannot be potentiated”. The Evaporated from coverslip [7, 10] was “---o---”, the Evaporated from coverslip ([7]; 25% v/v active component, 75% water) was “---o---” and the Evaporated from coverslip [7, 15] was “X (denotes a plate where the number of colonies represented less than 50% of the number of colonies counted in the corresponding positive control plate, representing reduction of the number of microorganisms (<2 Log10 reduction).)”. The “reduction of the population of viable microorganisms” value ([7]; concentrations of 6% and 25% in water) was “did not reduce the population of viable microorganisms”, the “Azeotrope with Water % v/v” value ([8]; Table 1) was 83% v/v and the “Azeotrope with Water % w/w” value ([8]; Table 1) was 87% w/w.
